For one experiment, the target named is AlgKXPp (Pseudomonas putida, UniProt Q88NC7+Q88ND0). Briefly: NanoESI-MS ligand titration of the AlgK-AlgX mixture, Ka,kxL fitted from the ligand-bound fraction of the complex with a coupled-equilibria model, 200 mM aqueous ammonium acetate pH 7, 25 °C by the table title (21 °C in the methods). Type of experiment: binding. As to conditions: n = 3. On the procedure: (§1) AlgXPp and AlgKPp stock solutions were buffer exchanged into 200 mM aqueous ammonium acetate (pH 7) using a 10 kDa cut-off Amicon 0.5 mL microconcentrators (EMD, Millipore, Billerica, MA). Stock solutions of oligosaccharides were prepared by dissolving a known amount of solid compound in Milli-Q water and stored at −20 °C until used. Nanoelectrospray (nanoESI) mass spectrometry measurements were performed on a Q Exactive Orbitrap (Orbitrap) mass spectrometer (Thermo Fisher Scientific, Bremen, Germany) and on a Q Exactive Ultra-High Mass Range Orbitrap mass spectrometer (Thermo Fisher Scientific, Bremen, Germany), both equipped with a nanoflow ESI source. NanoESI was performed by applying a voltage of ~0.8 kV to a platinum wire inserted into the nanoESI tip, which was produced from a borosilicate glass capillary (1.0 mm o.d., 0.78 mm i.d.) pulled to ~2 μm o.d. using a P − 1000 micropipette puller (Sutter Instruments, Novato, CA). The inlet capillary of the MS was heated to 120 °C, the S-lens RF level was set at 100, automatic gain control target was set at 1 × 10^6 with a maximum injection time of 200 ms. All MS data were acquired and processed using Thermo Xcalibur 4.1 software.
(§2) The Ka,kx for the interaction of AlgKPp and AlgXPp with the formation of AlgKXPp complex was obtained using the Slow Mixing Mode (SLOMO) ESI-MS assay. Briefly, ~2 µL of a solution of AlgXPp (5 µM) and AlgKPp (3–10 µM) was introduced into the nanoESI tip, followed by injection of 10 µL of solution of AlgXPp (5 µM) and AlgKPp (45 µM). The binding measurements were carried out at 21 °C; time-resolved mass spectra were averaged over 1 min intervals and the sum of the charge state-normalized abundances of the […] and AlgKXPp complex ions were calculated automatically using the SWARM software (https://github.com/pkitov/CUPRA-SWARM)[72]. The corrected (for response factors) abundances of AlgXPp and AlgKXPp species were used to calculate R/(R+1) values for AlgKPp (designated as L) and AlgXPp (designated as P) interaction and association constant Ka,kx was found using Eq. (1) (Ka,kx in this case designated as Ka in Eq. (1)).
(§3) 3b AlgXPpL⇌AlgXPp+L,Ka,xL=[AlgXPpL]/AlgXPp[L] 3c AlgKXPp⇌AlgKPp+AlgXPp,Ka,kx=[AlgKXPpL]/AlgKPp[AlgXPp] 3d AlgKXPpL⇌AlgKXPp+L,Ka,kxL=[AlgKXPL]/AlgKXPpLL
(§4) The corresponding mass balance equations are shown below:4a [L]0=[L]+[AlgKPpL]+[AlgXPpL]+[AlgKXPpL] 4b [AlgKPp]0=[AlgKPp]+[AlgKPpL]+[AlgKXPp]+[AlgKXPpL] 4c [AlgXPp]0=[AlgXPp]+[AlgXPpL]+[AlgKXPp]+[AlgKXPpL] where […], […], and [L]0 are initial concentrations of AlgKPp, AlgXPp, and oligosaccharide ligand L; Ka,kL, Ka,xL, and Ka,kx are association constant values determined as described above, and Ka,kxL is unknown parameter found by the fitting of the model to experimental data.

A further experiment has as its target AlgKPp (Pseudomonas putida, UniProt Q88NC7). As to the kind of experiment: Direct nanoESI-MS binding assay of the single proteins with reference protein correction for nonspecific binding, 200 mM aqueous ammonium acetate pH 7, 25 °C by the table title (21 °C in the methods). Also on record: gene algK. As for the experimental part: as §1
(§5) Association constants (Ka,kL and Ka,xL) for interactions of AlgKPp and AlgXPp with oligosaccharide ligands were obtained using the direct ESI-MS assay[68],[69]. The binding measurements were carried out at 21 °C, and the equilibrium mixtures were prepared by mixing aliquots of the stock solutions of proteins and ligands in aqueous ammonium acetate (200 mM). ESI-MS measurements were performed after a 1 h incubation time period. All mass spectra were corrected, when needed, for the occurrence of nonspecific carbohydrate-protein binding during the ESI process using the reference protein method. Ka,kL and Ka,xL values were determined from the abundance ratio (R) of the ligand-bound (PL) to free protein (P) ions (P can be AlgKPp or AlgXPp), after correction for nonspecific ligand binding, and the initial concentrations of protein ([P]0) and ligand ([L]0), Eq. (1):1 R/R+1=KaP0+KaL0+1−(1−KaL0+KaP0)^2+4KaL0/2KaP0 where R is taken to be equal to the corresponding equilibrium concentration ratio ([PL]/[P]) in solution, Eq. (2):2 R=∑Ab(PL)/∑Ab(P)=[PL]/[P] and Ka is Ka,kL or Ka,xL.

The target of experiment [1] is T1, AlgXPp (Pseudomonas putida, UniProt Q88ND0). The experiment is described as above. Details: gene algX. On the procedure: as §1, §5
Target sequence in this assay (Q88ND0 whole entry): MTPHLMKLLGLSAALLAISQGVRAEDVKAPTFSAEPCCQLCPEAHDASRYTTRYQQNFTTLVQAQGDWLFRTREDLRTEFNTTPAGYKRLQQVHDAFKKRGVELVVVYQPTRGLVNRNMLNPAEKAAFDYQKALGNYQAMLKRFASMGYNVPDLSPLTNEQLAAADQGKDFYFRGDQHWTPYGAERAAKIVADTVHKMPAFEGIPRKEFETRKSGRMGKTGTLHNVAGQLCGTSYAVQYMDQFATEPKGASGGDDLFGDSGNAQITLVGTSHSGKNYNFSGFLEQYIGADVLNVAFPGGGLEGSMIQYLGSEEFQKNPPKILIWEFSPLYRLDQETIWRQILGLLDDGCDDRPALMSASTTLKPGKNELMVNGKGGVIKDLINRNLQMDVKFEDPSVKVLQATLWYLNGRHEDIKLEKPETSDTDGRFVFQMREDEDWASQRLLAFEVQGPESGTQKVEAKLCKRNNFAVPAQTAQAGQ
The target in the next experiment is T2, AlgKXPp complex (Pseudomonas putida, UniProt Q88NC7+Q88ND0).
T2 construct: Induced cells containing either pET26b P. putida AlgK^33–484 or pET24b P. putida AlgX^∆Nterm; His6 (C); made in house; host or cells: E. coli BL21 (DE3) CodonPlus (AlgK) and E. coli Lemo21 (DE3) (AlgX)
Briefly: ESI-MS alginate binding assay, AlgKXPp complex (binding model fit). The following applies: AlgKPp and AlgXPp 5 µM each, ligand 100 µM, ammonium acetate 200 mM pH 7.0. On the procedure: as §1, §3, §4

In experiment [2] the target is T1, AlgXPp. Briefly: Slow Mixing Mode (SLOMO) ESI-MS assay of AlgKPp-AlgXPp complex formation. Details: His6 (C); made in house; host or cells: E. coli Lemo21 (DE3). The following applies: for Fraction of bound AlgX: mean, n = 3. The format is binding. As for the experimental part: as §1, §2
The mark [3] stands for this setting: read-out: Ka (M^-1) (AlgKPp), Ka (M^-1) (AlgXPp).

Sequence of AlgKXPp (Q88ND0 whole entry, one chain of several): as the sequence (Q88ND0 whole entry) above

With `CCCO[C@@H]1O[C@H](C(=O)O)[C@@H](O[C@@H]2O[C@H](C(=O)O)[C@@H](O[C@@H]3O[C@H](C(=O)O)[C@@H](O[C@@H]4O[C@H](C(=O)O)[C@@H](O[C@@H]5O[C@H](C(=O)O)[C@@H](O[C@@H]6O[C@H](C(=O)O)[C@@H](O[C@@H]7O[C@H](C(=O)O)[C@@H](O)[C@H](O)[C@@H]7O)[C@H](O)[C@@H]6O)[C@H](O)[C@@H]5O)[C@H](O)[C@@H]4O)[C@H](O)[C@@H]3O)[C@H](O)[C@@H]2O)[C@H](O)[C@@H]1O` [ManA7, heptamer of beta-D-mannuronic acid (1-4 linked, polyM heptasaccharide)], the figures for the Kd on AlgKXPp (read-out: Ka (M^-1) (AlgKXPp)), at AlgKPp (setting [3]) and on AlgXPp [1] (setting [3]) were 1000 µM, 2380 µM and 3850 µM, respectively.
“alginate heptasaccharide of alternating alpha-L-guluronate (G) and beta-D-mannuronate (M) [GMGMGMG]”: the “Ka (M^-1) (AlgKXPp)” value on AlgKXPp is “(18 ± 0.6) × 10^2 M-1”. Besides, the “Ka (M^-1) (AlgKPp); Ka (M^-1) (AlgXPp)” value at AlgXPp [1] is on record as “(2.7 ± 0.3) × 10^2 M-1”.
On to “alginate hexasaccharide of alpha-L-guluronate (G) and beta-D-mannuronate (M), sequence GMGGMG”, for which the “Ka (M^-1) (AlgKXPp)” value at AlgKXPp was “(5.4 ± 0.5) × 10^2 M-1”. The “Ka (M^-1) (AlgKPp); Ka (M^-1) (AlgXPp)” value on AlgKPp is given as “(3.0 ± 0.9) × 10^2 M-1”; on AlgXPp [1], “(1.4 ± 0.3) × 10^2 M-1”.
On the same counts, the results for “alginate hexasaccharide of alternating alpha-L-guluronate (G) and beta-D-mannuronate (M) [GMGMGM]” are “(12 ± 0.7) × 10^2 M-1”, “(2.5 ± 0.1) × 10^2 M-1” and “(4.5 ± 1.0) × 10^2 M-1”.
Turning to “pentadeca-hyaluronic acid [HA15, reference compound]”, the “ligand binding to AlgKXPp detected by ESI-MS” value on AlgKXPp complex is on record as “No ligand binding was detected”; at AlgKXPp complex (listed as 15-mer of hyaluronic acid) it was “no specific binding”.

B1: AlgK: P. putida KT2440 AlgK residues 33–484, His-tagged TPR-containing lipoprotein (protein)
chain: CAGLPDQRLAQEALERGDLATAQSNYQALAAMGYADAQVGLADMQVASGDSAQQAKAEKLYREAAQTSPRARARLGKWLAAKPGASDAEHREAERLLSQAFEQGEDSALVPLIVLYLQYPQSWPEIDPQQRIDQWRARGLPQADLAQIILYRTQGTYAQHLGEIEQVCQRWLRRMDVCWYELATVYQMQGNAEKQKVLLEQLRAAYKAGRVPGERVDSVAGVLADGELGQPDPQTAQALLEEIAPSYPAAWVSLAKLLYDYPDQGDLEKMLGYLKNAQDAAQPRAELLLGRLYYDGKWAPQDPRKAERHLLKAAASEPQANYYLGQIYRRGFLGKVYPQKAVDHLILAARAGQASADMALAQLWSQGRGIQPNRVNAYVFGQLAVQQQVPQASDLLGQIEAQLPPAERSQAQQLLKREQQSRGNNWQATVSLLQSQDSPINEEEPESL
For the molecule B1, the “Fraction of bound AlgX” value in the experiment with AlgXPp [2] (concentration of AlgK 3 µM) is reported as 0.22; in the experiment with AlgXPp [2] (concentration of AlgK 5 µM), 0.24; in the experiment with AlgXPp [2] (concentration of AlgK 7.5 µM), 0.31; in the experiment with AlgXPp [2] (concentration of AlgK 10 µM), 0.42.

B2: AlgKXPp: 1:1 complex of P. putida AlgK and AlgX (protein, UniProt Q88NC7 33-484; Q88ND0 25-479, looked up)
Alginate biosynthesis protein … 1: CAGLPDQRLANEALKRGDTALAERNYKALADLGYSEAQVGLADIKVATRDPSQIKEAEATYRAAAATSPRAQARLGRLLVAKPDSTQAEREEAETLLKQAAKQGQSNTLIPLAMLYLSYPQSFPKVNAQQQIDQWRAAGNPEAGLAQVLLYRTQGTYDQHLGEVEKICKAALNTTDICYVELATVYQKRGQADQQAALLGQLKSAYARGAVPATRVDSVARVLADRSLGQTDEKTAKELLEQVAPANPASWVSLAQLVYDFPELGDTDQLMAYIDKGREAEQPRAELLLGRLYYEGKTLPADAQKAEQHLQAAAEAGEISAHYYLGQLYRRGYLGNVEPQKAVDHLLAAARGGQNSADYALAQLFSEGHGIRPQPGNAWVFAQLSQANPTPQSAELLQQLDQQLTPDQRNQAQQLLDQEKRARGSLAQGANSTLALEALQDDEKEVDGEDSL
Alginate biosynthesis protein … 2: EDVKAPTFSAEPCCQLCPEAHDASRYTTRYQQNFTTLVQAQGDWLFRTREDLRTEFNTTPAGYKRLQQVHDAFKKRGVELVVVYQPTRGLVNRNMLNPAEKAAFDYQKALGNYQAMLKRFASMGYNVPDLSPLTNEQLAAADQGKDFYFRGDQHWTPYGAERAAKIVADTVHKMPAFEGIPRKEFETRKSGRMGKTGTLHNVAGQLCGTSYAVQYMDQFATEPKGASGGDDLFGDSGNAQITLVGTSHSGKNYNFSGFLEQYIGADVLNVAFPGGGLEGSMIQYLGSEEFQKNPPKILIWEFSPLYRLDQETIWRQILGLLDDGCDDRPALMSASTTLKPGKNELMVNGKGGVIKDLINRNLQMDVKFEDPSVKVLQATLWYLNGRHEDIKLEKPETSDTDGRFVFQMREDEDWASQRLLAFEVQGPESGTQKVEAKLCKRNNFAVPAQTAQAGQ
B2: the “association constant (Ka) for 1:1 AlgKXPp complex formation” value with AlgXPp [2] (SLOMO ESI-MS, AlgXPp 5 µM, 21 °C) is 8.9 ± 0.9 × 10^4 M^−1.
